What was measured:
PDE4B3 = target: T1, PDE4B3 (Mus musculus, UniProt Q8VBU5); assay: Fission yeast 5FOA growth assay, strain expressing PDE4B3; assay type: cell-based, murine; conditions: 5FOA growth screen; for 1 Assay (20 uM), PDE 4B3: 20 uM compound; for 2 Assay (2 uM), PDE 4B3: 2 uM compound
T1 construct: targets used in the assays are full-length proteins (as opposed to simply the catalytic domain); expressed in transfected cells; host or cells: Schizosaccharomyces pombe, gene integrated at the cgs2 locus
T1 sequence (Q8VBU5 1-721): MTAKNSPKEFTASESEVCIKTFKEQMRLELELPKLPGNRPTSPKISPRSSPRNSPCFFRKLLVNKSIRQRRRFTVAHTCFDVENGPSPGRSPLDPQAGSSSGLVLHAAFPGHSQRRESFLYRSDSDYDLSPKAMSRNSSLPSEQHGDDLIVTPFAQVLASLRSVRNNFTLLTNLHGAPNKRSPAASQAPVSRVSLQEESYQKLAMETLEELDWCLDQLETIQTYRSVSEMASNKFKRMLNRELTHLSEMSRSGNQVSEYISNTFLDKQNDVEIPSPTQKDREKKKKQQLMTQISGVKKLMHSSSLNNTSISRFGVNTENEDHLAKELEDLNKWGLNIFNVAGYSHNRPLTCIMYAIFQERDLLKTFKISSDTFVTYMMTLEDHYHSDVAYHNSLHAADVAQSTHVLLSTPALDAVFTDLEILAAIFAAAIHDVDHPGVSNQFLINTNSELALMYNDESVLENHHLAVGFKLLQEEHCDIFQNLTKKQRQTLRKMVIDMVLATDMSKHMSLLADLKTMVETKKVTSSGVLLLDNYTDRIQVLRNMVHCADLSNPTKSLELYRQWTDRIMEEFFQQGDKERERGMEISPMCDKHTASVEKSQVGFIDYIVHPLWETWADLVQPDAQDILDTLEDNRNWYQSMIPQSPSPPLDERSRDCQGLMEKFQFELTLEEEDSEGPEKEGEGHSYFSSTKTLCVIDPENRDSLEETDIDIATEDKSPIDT
Protocol: (§1) High throughput drug screens were carried out at the Broad Institute's Chemical Biology Program screening facility (Broad Institute, Cambridge, Mass.). Depending upon the strain, cultures were pregrown to exponential phase in EMM complete medium containing from 0.5 to 2.5 mM cAMP to repress fbp1-ura4 transcription. […] Starting cell concentrations ranged from 0.5×10^5 to 4×10^5 cells/ml depending on the screening strain. […] Other positive control dishes contained 5 mM cAMP in the 5FOA medium. Cultures were grown for 48 hours at 30° C., sealed in an airtight container with moist paper towels to prevent evaporation. Optical densities (OD600) of cultures were measured using a microplate reader. Bioinformatic analysis of the results to determine composite Z scores was performed as previously described^30, 31.
(§2) Cells were pregrown in EMM medium [MP Biomedicals (Solon, OH), 3% glucose, filter-sterilized to avoid carmelization, which would introduce variability into the optical density of the medium] containing from 0 mM to 2.5 mM cAMP (or either 0.5 mM or 1.0 mM cGMP). This was to repress expression of the fbp1-ura4 reporter prior to exposure of cells to 5FOA medium. Cells were grown at 30° C. to exponential phase (approximately 10^7 cells/ml). […] Starting cell concentrations ranged from 0.5×10^5 to 4×10^5 cells/ml depending on the screening strain. […] Other positive control dishes contained 5 mM cAMP in the 5FOA medium for PDEs that lack appropriate control compounds. Cultures were grown for 48 hours at 30° C., sealed in an airtight container with moist paper towels to prevent evaporation. Optical densities (OD600) of cultures were measured using a microplate reader. Bioinformatic analysis of the results to determine composite Z scores was performed as previously described (1, 3).

PDE4A1 = target: T2, PDE4A1 (Mus musculus, UniProt O89084); assay: Fission yeast 5FOA growth assay, strain expressing PDE4A1; assay type: cell-based, murine; conditions: 5FOA growth screen; for 1 Assay (20 uM), PDE 4A1: 20 uM compound; for 2 Assay (2 uM), PDE 4A1: 2 uM compound
T2 construct: targets used in the assays are full-length proteins (as opposed to simply the catalytic domain); expressed in transfected cells; host or cells: Schizosaccharomyces pombe, gene integrated at the cgs2 locus
T2 sequence (O89084 1-610 isoform O89084-2): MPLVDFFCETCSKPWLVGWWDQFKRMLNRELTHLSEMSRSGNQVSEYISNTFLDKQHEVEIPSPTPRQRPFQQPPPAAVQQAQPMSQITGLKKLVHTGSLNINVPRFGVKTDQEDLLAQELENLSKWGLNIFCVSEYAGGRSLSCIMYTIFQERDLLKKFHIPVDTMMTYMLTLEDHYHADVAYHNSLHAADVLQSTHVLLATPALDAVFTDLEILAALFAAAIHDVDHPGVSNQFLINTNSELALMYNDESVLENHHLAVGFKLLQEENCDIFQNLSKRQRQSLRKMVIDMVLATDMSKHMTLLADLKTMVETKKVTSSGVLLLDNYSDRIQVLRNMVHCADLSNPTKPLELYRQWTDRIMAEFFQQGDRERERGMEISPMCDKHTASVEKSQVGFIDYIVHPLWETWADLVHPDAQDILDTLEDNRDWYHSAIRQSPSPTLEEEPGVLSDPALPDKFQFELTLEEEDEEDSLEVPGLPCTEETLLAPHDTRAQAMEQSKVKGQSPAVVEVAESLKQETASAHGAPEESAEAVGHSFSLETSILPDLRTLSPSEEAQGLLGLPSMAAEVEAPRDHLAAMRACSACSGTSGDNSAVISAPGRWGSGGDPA
Protocol: as §1, §2

| SMILES | 1 Assay (20 uM), PDE 4B3 (PDE4B3) | 1 Assay (20 uM), PDE 4A1 (PDE4A1) | 2 Assay (2 uM), PDE 4B3 (PDE4B3) | 2 Assay (2 uM), PDE 4A1 (PDE4A1) |
| --- | --- | --- | --- | --- |
| Cc1ccc2c(c1)c1nc3ccccc3nc1n2C(C)C [Compound 41] | 200.51 | 106.90 | – | – |
| COC(=O)C1=C(C)N(c2ccccc2F)C(=O)/C1=C\c1cccc(OC)c1O [2008, C21] | 24.16 ND ND ND ND | 18.97 ND ND ND ND | – | – |
| COC(=O)C1=C(C)N(c2ccccc2)/C(=C/c2cccs2)C1=O [2008, K19] | −0.61 ND ND ND ND | −0.46 ND ND ND ND | – | – |
| COC(=O)C1=C(C)N(C2CCCCC2)C(=O)/C1=C\c1cccs1 [Compound 22] | 70.26 | 98.84 | 37.54 | 27.01 |
| COC(=O)C1=C(C)N(c2ccc(C(C)C)cc2)C(=O)/C1=C\c1cccs1 [2008, O19] | −2.99 ND ND ND ND | 0.80 ND ND ND ND | – | – |
| COC(=O)C1=C(C)N(c2ccccc2Cl)C(=O)/C1=C\c1cccs1 [Compound 27] | −0.26 | 64.18 | 22.05 | 17.41 |

Reference: US20100179158A1, “INHIBITORS OF CYCLIC AMP PHOSPHODIESTERASES” (priority 2007, published 2010)
